Entries after “also recorded” stand apart in the source; their conditions may differ.
Test system: LPS-stimulated TNF-α production
Test: LPS-stimulated TNF-α production by THP-1-derived monocytes (ELISA)
Assay type: cell-based, human
Details: differentiated THP-1 cells, endotoxin 10 ng/ml, 24 hours; for effect on LPS-stimulated TNF-α production/synthesis (in words): rising concentrations
Protocol: The human promonocytic THP-1 cell line (American Type Culture Collection, Manassas, Va.) was maintained in suspension culture at 0.25×10^6 cells/ml in RPMI-1640 medium supplemented with 2 mM L-glutamine, 10% fetal bovine serum and 0.05 mM 2-mercaptoethanol in a humidified atmosphere of 5% CO2 in air at 37° C. Differentiation to monocytes (0.25×10^6 cells/ml) was induced by incubating cells with trans-retinoic acid (1 μM), 1.25 dihydroxy cholecalciferol (0.1 μM) and interferon-γ (0.01 mg/l) (Sigma, St. Louis, Mo.). After 3 days, cells were detached using trypsin-EDTA, washed in PBS, and 1×10^6 cells were used for each experimental condition.
Differentiated THP-1 cells were co-incubated with 10 ng/ml of purified Escherichia coli endotoxin (serotype O55: B5, Sigma Chemical Co.) and rising concentrations (0-400 μM) of either melatonin, N-acetyldopamine (NAD) or N-methyldopamine (NMD) or 3-hydroxy-4-methoxy-dopamine (HMP) (Sigma) in RPMI-1640 cell culture medium at 37° C. in a humidified atmosphere supplemented with 5% CO2. After 24-hour incubation, cell supematants were harvested, and TNF-α was measured by a sandwich enzyme linked immunosorbent assay (ELISA), according to the manufacturer's instructions (Quantikine®, R & D systems, Minneapolis, Minn., USA). The lower limit of detection for TNF-α was 1.6 pg/ml. The average intra-assay coefficient of variation for TNF-α was 5%.

Compound	effect on LPS-stimulated TNF-α production/synthesis (in words)	potency in blocking TNF-α production compared with NMD, HMP and melatonin (low-dose (1-20 μM, FIG. 1))
CC(=O)NCCc1ccc(O)c(O)c1 [NAD, N-acetyldopamine]	marked decrease in LPS-stimulated TNF-α production, which was dose dependent; also recorded: suppress LPS-stimulated TNF-α synthesis by monocytic cells in a dose-dependent manner	more potent in blocking TNF-α production
CC(=O)NCCc1c[nH]c2ccc(O)cc12 [NAS, N-acetyl-serotonin, reference compound]	marked decrease in LPS-stimulated TNF-α production, which was dose dependent	–
CNCCc1ccc(O)c(O)c1 [NMD, N-methyldopamine]	suppress LPS-stimulated TNF-α synthesis by monocytic cells in a dose-dependent manner	–
COc1ccc2[nH]cc(CCNC(C)=O)c2c1 [melatonin, reference compound]	marked decrease in LPS-stimulated TNF-α production, which was dose dependent	–

Reference: patent publication US20080234385A1, “Method For Inhibiting Tnf-Alpha” (CARITAS ST. ELIZABETH'S MEDICAL CENTER, priority 2005, published 2008)
